Literature values, collected in patent US10596038B2, “Corneal denervation for treatment of ocular pain” (Journey1, Inc., priority 2009, dated 2020).

Details: after 24 hours

detectability in the blood: undetectable
Structure (SMILES): COc1cc(CNC(=O)CCCC/C=C/C(C)C)ccc1O [Capsaicin]
